Experimental data: paper PMC10146558, “Highly Cytotoxic Copper(II) Mixed-Ligand Quinolinonato Complexes: Pharmacokinetic Properties and Interactions with Drug Metabolizing Cytochromes P450” (Pharmaceutics, 2023)
Several values for one entry are separate records, joined by “and”; a condition that tells them apart may be missing. Equal values may be shown once.

Assays:
CYP3A4/5 = CYP3A4/5 activity (testosterone 6β-hydroxylation) in human liver microsomes; settings: for Type of inhibition, CYP3A4/5 (testosterone 6β-hydroxylation) / Ki: Dixon and Lineweaver–Burk plots; for IC50: read-out: IC50 CYP3A4/5 (testosterone 6β-hydroxylation assay), human liver microsomes; for Ki: read-out: Ki CYP3A4/5 (testosterone 6β-hydroxylation assay), substrate ½ Km to 4 Km
Description: For each enzyme assay, the preliminary experiments to determine Michaelis constant (Km) and limiting velocity (Vmax) were performed to calculate the time of incubation (the specified time for which the reaction is still linear) and the values of substrate concentration (in the range corresponding to the value of Km). The amount of human liver microsomes (HLM; expressed as the amount of CYP in pmol and the concentration of HLM protein in mg/mL in the reaction vessel) in the reaction was determined using previously established protocols [40].
The reaction mixtures were buffered by 0.1 M potassium phosphate buffer (pH 7.4) and contained a NADPH-generating system consisting of the isocitrate dehydrogenase (6 U/mL), NADP^+ (0.5 mM), isocitric acid (4 mM), and MgSO4 (5 mM). The final concentration levels of complexes were obtained by diluting a 10 mM solution with dimethyl sulfoxide (DMSO). It is known that DMSO can in some cases inhibit P450; the following measures were thus applied: (a) control samples containing organic solvent without the tested compounds were prepared and used as references; (b) DMSO levels were maintained below 0.1% to minimise the inhibition. Inhibition experiments were performed using five concentration levels of the tested compounds in the range of 10–100 µM. The maximum concentration was chosen so that in the case of inhibition, it would be possible to determine the inhibitory effect of the complexes and characterise them by determining the IC50 value. Additionally, an inhibitor-free control was used as a reference. Incubations were executed in two independent batches, and the samples were prepared and measured in triplicate at 37 °C.
The type of model was selected on the basis of the Lineweaver–Burk and Dixon plots. The values of IC50 were obtained by analysing the plot of the percentage of activity remaining after inhibition versus the logarithm of the inhibitor concentration using the GraphPad Prism 6 software (La Jolla, CA, USA).

CYP2C9 = biological target: T1, CYP2C9 (Homo sapiens, UniProt P11712); test: CYP2C9 activity (diclofenac 4′-hydroxylation) in human liver microsomes; format: biochemical; settings: for Type of inhibition, CYP2C9 / Ki: Dixon and Lineweaver–Burk plots; for Ki: substrate ½ Km to 4 Km; for IC50: human liver microsomes, diclofenac 4′-hydroxylation
T1 construct: Cryopreserved pooled human liver microsomes were obtained from Xenotech; tissue Xenotech (Lenexa, KS, USA); host or cells: pooled human liver microsomes
T1 sequence (P11712 whole entry): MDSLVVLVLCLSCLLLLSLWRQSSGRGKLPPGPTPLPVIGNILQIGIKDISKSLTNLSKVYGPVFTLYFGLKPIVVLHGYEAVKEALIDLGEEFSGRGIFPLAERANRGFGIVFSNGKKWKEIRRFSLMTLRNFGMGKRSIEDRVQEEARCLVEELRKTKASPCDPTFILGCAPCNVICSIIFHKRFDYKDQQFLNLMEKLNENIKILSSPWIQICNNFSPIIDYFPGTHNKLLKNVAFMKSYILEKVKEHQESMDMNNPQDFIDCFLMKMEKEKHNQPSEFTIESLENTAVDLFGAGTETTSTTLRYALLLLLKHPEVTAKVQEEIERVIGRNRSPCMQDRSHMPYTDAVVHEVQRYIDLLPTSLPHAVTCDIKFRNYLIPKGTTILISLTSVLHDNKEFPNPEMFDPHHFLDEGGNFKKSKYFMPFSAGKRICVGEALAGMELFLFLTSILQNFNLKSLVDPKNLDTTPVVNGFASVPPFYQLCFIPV
Description: (§4) For each enzyme assay, the preliminary experiments to determine Michaelis constant (Km) and limiting velocity (Vmax) were performed to calculate the time of incubation (the specified time for which the reaction is still linear) and the values of substrate concentration (in the range corresponding to the value of Km).
(§5) The reaction mixtures were buffered by 0.1 M potassium phosphate buffer (pH 7.4) and contained a NADPH-generating system consisting of the isocitrate dehydrogenase (6 U/mL), NADP^+ (0.5 mM), isocitric acid (4 mM), and MgSO4 (5 mM). The final concentration levels of complexes were obtained by diluting a 10 mM solution with dimethyl sulfoxide (DMSO). It is known that DMSO can in some cases inhibit P450; the following measures were thus applied: (a) control samples containing organic solvent without the tested compounds were prepared and used as references; (b) DMSO levels were maintained below 0.1% to minimise the inhibition. Inhibition experiments were performed using five concentration levels of the tested compounds in the range of 10–100 µM. The maximum concentration was chosen so that in the case of inhibition, it would be possible to determine the inhibitory effect of the complexes and characterise them by determining the IC50 value. Additionally, an inhibitor-free control was used as a reference. Incubations were executed in two independent batches, and the samples were prepared and measured in triplicate at 37 °C. Analyses of the metabolites formed from the specific substrates were performed by HPLC using the Prominence system (Shimadzu, Kyoto, Japan) equipped with a LiChroCART 250-4 LiChrospher 100 RP-18 column, Chromolith® HighResolution RP-18 end-capped column (Merck, Darmstadt, Germany), or Kinetex Biphenyl column (Phenomenex, Torrace, CA, USA).
(§6) The apparent Ki values were determined by additional measurements using substrate concentrations corresponding to 1/2 Km, Km, 2 Km, and 4 Km in the case of inhibition. The type of model was selected on the basis of the Lineweaver–Burk and Dixon plots. The values of IC50 were obtained by analysing the plot of the percentage of activity remaining after inhibition versus the logarithm of the inhibitor concentration using the GraphPad Prism 6 software (La Jolla, CA, USA).

[1] = Chemical stability (stability in PBS); format: physicochemical; settings: 1 × PBS pH 7.4, 37 °C, 7.4 µM
Description: (§1) Pharmacological properties of the complexes 1 and 2, including stability in plasma, microsomal stability, binding to plasma proteins, and permeability through an artificial membrane, were tested under in vitro conditions and according to methods described in previous reports. Analysis of the samples was performed using Agilent RapidFire 300 High-Throughput Mass Spectrometry System (Agilent Technologies, Wakefield, MA, USA) with subsequent detection using the mass spectrometer Qtrap 5500 (AB Sciex, Concord, Toronto, ON, Canada), abbreviation RF-MS. The samples were aspirated directly from the plates into a 10 μL sample loop and passed through a C4 cartridge with solvent A (5% acetonitrile, 95% water, 0.1% formic acid) at a flow rate of 1.5 mL/min for 3 s. After the desalting step, analytes retained on the cartridge were eluted with solvent B (95% acetonitrile, 5% water, 0.1% formic acid) in the mass spectrometer at a flow rate of 0.4 mL/min for 5 s. The mass spectrometry of the samples was carried out using electrospray ionisation in the positive ion mode. Daughter ion peaks were identified using a multiple-reaction monitoring protocol.
(§2) The reaction was terminated by ice-cold methanol (chemical stability) or acetonitrile:methanol (2:1), and samples were left at −80 °C overnight (plasma stability). The solution was mixed and centrifuged (4000 rpm, 9 min, 4 °C). After lyophilization of supernatant, samples were dissolved in mobile phase with internal standard and analysed by RF/MS analysis.

[2] = Stability in human plasma; format: in vitro ADME; settings: 37 °C, 3.3 μM
Description: as §1, §2

CYP3A4 [3] = biological target: T2, CYP3A4 (Homo sapiens, UniProt P08684); test: Isothermal titration calorimetry, recombinant human CYP3A4; format: binding; set-up: purchased Sigma-Aldrich (Prague, Czech Republic); settings: recombinant human CYP3A4, 25 °C; for n, CYP3A4: ITC stoichiometry, pH 7.4; for Ka, CYP3A4 / Kd / ΔG, CYP3A4 / ΔH, CYP3A4 / ΔS, CYP3A4: ITC, pH 7.4, 1% DMSO
Description: (§3) The interactions of the compounds with selected forms of cytochrome P450, i.e., human bactosomes CYP1A2, CYP2A6, CYP3A4, and recombinant human CYP3A4, were studied using isothermal titration calorimetry (ITC). ITC experiments were performed at 25 °C with a Nano ITC Low Volume (TA Instruments, New Castle, DE, USA). During all measurements, 20 injections of 16µM of the studied compound (2.5 µL each) were titrated into 250 µL of protein (2 µM) with time intervals of 300 s and a stirring speed of 250 rpm. All ITC experiments were conducted with degassed buffered solutions (100 mM phosphate buffer, pH 7.4) in the presence of 1% DMSO. Control experiments included the titration of each complex solution into a buffer. The corrected data refer to experimental data after subtraction of the buffer control data from the compounds data. The resulting thermograms were analysed using the “Independent” model within the NanoAnalyze software (TA Instruments, New Castle, DE, USA).
Target sequence in this assay (P08684 whole entry): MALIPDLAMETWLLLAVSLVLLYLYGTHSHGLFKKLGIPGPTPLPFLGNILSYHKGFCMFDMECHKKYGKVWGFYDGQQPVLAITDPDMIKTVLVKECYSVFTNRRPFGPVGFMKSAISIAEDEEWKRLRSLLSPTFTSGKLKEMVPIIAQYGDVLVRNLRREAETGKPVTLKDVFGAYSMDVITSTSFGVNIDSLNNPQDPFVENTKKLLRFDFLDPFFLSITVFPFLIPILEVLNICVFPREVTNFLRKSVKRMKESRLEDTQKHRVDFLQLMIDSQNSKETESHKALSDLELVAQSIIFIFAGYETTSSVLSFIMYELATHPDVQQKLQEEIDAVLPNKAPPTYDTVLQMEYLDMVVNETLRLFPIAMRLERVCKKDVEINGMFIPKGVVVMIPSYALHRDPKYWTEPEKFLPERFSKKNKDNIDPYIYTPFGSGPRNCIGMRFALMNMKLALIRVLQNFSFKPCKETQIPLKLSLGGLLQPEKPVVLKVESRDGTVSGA

plasma proteins = test: Plasma protein binding (rapid equilibrium dialysis); format: in vitro ADME, human; settings: 10 μM in 50% plasma, 37 °C, 4 h
Description: as §1, with “The mass spectrometry of the samples was carried out using electrospray ionisation in the positive ion mode. Daughter ion peaks were identified using a multiple-reaction monitoring protocol.” left out
The fraction bound value was determined using the semipermeable membrane that separates a protein-containing compartment (R chamber) from a protein-free compartment (W chamber) (Rapid Equilibrium Dialysis, Thermo Scientific™, Rockford, IL, USA). […] Samples were dissolved in mobile phase containing internal standard and analysed on the RF/MS.

CYP3A4 [4] = biological target: T2, CYP3A4; test: CYP3A4 activity (midazolam 1′-hydroxylation) in human liver microsomes; settings: read-out: IC50 CYP3A4 (midazolam 1′-hydroxylation assay); human liver microsomes
Target sequence in this assay (P08684 2-503): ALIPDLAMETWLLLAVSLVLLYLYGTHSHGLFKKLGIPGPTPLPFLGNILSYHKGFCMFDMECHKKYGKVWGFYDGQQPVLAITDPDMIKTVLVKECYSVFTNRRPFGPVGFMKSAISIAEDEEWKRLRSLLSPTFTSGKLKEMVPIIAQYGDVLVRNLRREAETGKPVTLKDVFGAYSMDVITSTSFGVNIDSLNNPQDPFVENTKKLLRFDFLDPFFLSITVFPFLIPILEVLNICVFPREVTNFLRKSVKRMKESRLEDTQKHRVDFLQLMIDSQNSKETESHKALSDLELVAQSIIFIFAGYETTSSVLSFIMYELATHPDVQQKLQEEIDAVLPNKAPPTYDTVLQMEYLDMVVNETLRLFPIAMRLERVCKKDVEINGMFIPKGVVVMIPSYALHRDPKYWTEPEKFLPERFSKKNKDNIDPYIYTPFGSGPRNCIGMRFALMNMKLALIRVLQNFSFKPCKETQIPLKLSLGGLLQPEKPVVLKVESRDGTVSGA
Description: as §4, §5, §6

human bactosomes CYP3A4 = biological target: T3, human bactosomes CYP3A4 (Homo sapiens, UniProt P08684); test: Isothermal titration calorimetry, bactosomes CYP3A4; format: binding; settings: 25 °C; for n, CYP3A4B: ITC stoichiometry, pH 7.4; for Ka, CYP3A4B / ΔG, CYP3A4B / ΔH, CYP3A4B / ΔS, CYP3A4B / Kd: ITC, pH 7.4, 1% DMSO; for Kd: read-out: Kd, CYP3A4B
T3 construct: purchased Cypex (Dundee, UK); host or cells: bacterial membranes ('bactosomes')
T3 sequence (P08684 whole entry): as the sequence (P08684 whole entry) above
Description: as §3

CYP2C19 = biological target: T4, CYP2C19 (Homo sapiens, UniProt P33261); test: CYP2C19 activity ((S)-mephenytoin 4′-hydroxylation) in human liver microsomes; format: biochemical; settings: for Type of inhibition, CYP2C19 / Ki: Dixon and Lineweaver–Burk plots; for Ki: substrate ½ Km to 4 Km; for IC50: human liver microsomes, (S)-mephenytoin 4′-hydroxylation
T4 construct: Cryopreserved pooled human liver microsomes were obtained from Xenotech; tissue Xenotech (Lenexa, KS, USA); host or cells: pooled human liver microsomes
T4 sequence (P33261 whole entry): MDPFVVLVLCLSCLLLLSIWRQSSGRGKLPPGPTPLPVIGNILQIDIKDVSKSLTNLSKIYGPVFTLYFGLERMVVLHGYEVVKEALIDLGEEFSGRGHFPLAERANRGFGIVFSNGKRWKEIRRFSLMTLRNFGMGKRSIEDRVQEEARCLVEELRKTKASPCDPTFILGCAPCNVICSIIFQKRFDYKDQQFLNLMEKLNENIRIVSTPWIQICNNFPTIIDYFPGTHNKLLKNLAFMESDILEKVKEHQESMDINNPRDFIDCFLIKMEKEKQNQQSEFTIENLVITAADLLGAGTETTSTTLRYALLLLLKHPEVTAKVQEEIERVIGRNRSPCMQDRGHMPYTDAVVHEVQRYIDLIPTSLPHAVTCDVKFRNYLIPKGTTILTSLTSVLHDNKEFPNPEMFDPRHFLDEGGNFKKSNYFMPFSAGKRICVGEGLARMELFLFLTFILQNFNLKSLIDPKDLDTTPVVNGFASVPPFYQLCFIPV
Description: as §4, §5, §6

Compound | Type of inhibition, CYP3A4/5 (testosterone 6β-hydroxylation) (CYP3A4/5) | IC50 (CYP3A4/5) | Ki (CYP3A4/5) | Type of inhibition, CYP2C9 (CYP2C9) | Ki (CYP2C9) | IC50 (CYP2C9) | % Compound Remaining, Chemical Stability, 15 min [1] | % Compound Remaining, Chemical Stability, 30 min [1] | % Compound Remaining, Chemical Stability, 60 min [1] | % Compound Remaining, Chemical Stability, 120 min [1] | % Compound Remaining, Plasma Stability, 15 min [2] | % Compound Remaining, Plasma Stability, 30 min [2] | % Compound Remaining, Plasma Stability, 60 min [2] | % Compound Remaining, Plasma Stability, 120 min [2] | n, CYP3A4 (CYP3A4 [3]) | Ka, CYP3A4 (CYP3A4 [3]) | Kd (CYP3A4 [3]) | ΔG, CYP3A4 (CYP3A4 [3]) | ΔH, CYP3A4 (CYP3A4 [3]) | ΔS, CYP3A4 (CYP3A4 [3]) | other results
Cc1cc2cccnc2c2ncccc12.O.O=[N+]([O-])[O-].O=c1c([O-])c(-c2ccccc2)[nH]c2ccccc12.[Cu+2] [complex 1] | non-competitive | 2.46 µM | 3.6 ± 0.67 µM | non-competitive | 2.56 ± 0.37 µM | 16.3 µM | 99.6 ± 3.6% | 99.9 ± 1.5% | 97.8 ± 3.4% | 96.6 ± 3.4% | 98.9 ± 2.5% | 94.0 ± 3.3% | 94.2 ± 2.3% | 91.2 ± 1.2% | 1.171 | 1.3e+07 M⁻¹ | 0.0769 µM | −34,899.9 J/mol | -88.06 kJ/mol | −178.3 J/mol.K | Plasma protein binding, % Fraction bound (plasma proteins): 95% and 95.1 ± 1.0%; IC50 (CYP3A4 [4]): 28.8 ± 2.55 µM; n, CYP3A4B (human bactosomes CYP3A4): 0.911; Ka, CYP3A4B (human bactosomes CYP3A4): 1.92e+07 M⁻¹; ΔG, CYP3A4B (human bactosomes CYP3A4): −41,558.7 J/mol; ΔH, CYP3A4B (human bactosomes CYP3A4): -80.02 kJ/mol; ΔS, CYP3A4B (human bactosomes CYP3A4): −129 J/mol.K; Kd (human bactosomes CYP3A4): 0.0521 µM; Type of inhibition, CYP2C19 (CYP2C19): non-competitive; Ki (CYP2C19): 4.15 ± 0.71 µM; IC50 (CYP2C19): 61.2 µM
Cc1cc2cccnc2c2ncccc12.F[B-](F)(F)F.O.O=c1c([O-])c(-c2ccccc2)[nH]c2ccccc12.[Cu+2] [complex 2] | fully non-competitive | 4.88 µM | 3.94 ± 0.6 µM | fully non-competitive | 0.92 ± 0.25 µM | 37.2 µM | 99.6 ± 3.0% | 96.8 ± 2.4% | 94.0 ± 3.3% | 96.6 ± 2.4% | 98.3 ± 2.4% | 94.1 ± 2.4% | 96.6 ± 3.4% | 92.6 ± 2.2% | 1.095 | 1.59e+07 M⁻¹ | 0.0629 µM | -5.5866 kJ/mol | -51.77 kJ/mol | −154.9 J/mol.K | CYP3A4/5 activity remaining (testosterone 6β-hydroxylation), % of basal activity (CYP3A4/5; at 100 μM): 1%; CYP2C9 activity remaining, % of the control (CYP2C9; at 100 μM): 7%; Plasma protein binding, % Fraction bound (plasma proteins): 93% and 92.9 ± 1.5%; IC50 (CYP3A4 [4]): 33 ± 1.13 µM; n, CYP3A4B (human bactosomes CYP3A4): 0.859; Ka, CYP3A4B (human bactosomes CYP3A4): 2.17e+07 M⁻¹; ΔG, CYP3A4B (human bactosomes CYP3A4): −41,881.2 J/mol; ΔH, CYP3A4B (human bactosomes CYP3A4): -62.71 kJ/mol; ΔS, CYP3A4B (human bactosomes CYP3A4): −69.86 J/mol.K; Kd (human bactosomes CYP3A4): 0.0461 µM; Type of inhibition, CYP2C19 (CYP2C19): fully non-competitive; Ki (CYP2C19): 9.14 ± 0.8 µM; CYP2C19 activity remaining, % of the basal activity (CYP2C19; at 100 μM): 36%; IC50 (CYP2C19): 77.1 µM
